What was measured:
MDR1 = assay: MDCK-MDR1 permeability assay; type: in vitro ADME; conditions: dog, MDCK-MDR1, MDCK-MDR1 cells; for efflux ratio at 2 h, 3 μM: Papp B→A divided by Papp A→B, read-out: Efflux ratio (ER); for Papp A→B at 2 h, 3 μM: test compound 3 μM, 2 hours at 37 degrees C, apical to basolateral
In short: (§1)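 Test compound at 3 μM in HBSS was dosed apical-to-basolateral (with 100 μM Lucifer Yellow) and basolateral-to-apical across MDCK-MDR1 monolayers at 37 °C for 2 h. Receiver and donor samples were quantified by LC-MS/MS. Papp = dQ/dt×1/A×C0, efflux ratio = Papp(B→A)/Papp(A→B), and percent recovery was also derived.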

Sprague-Dawley rats = assay: Assessment of wake promotion in Sprague-Dawley rats (EEG/EMG); type: in vivo, rat; conditions: male Sprague-Dawley rats, 3 mpk, dosed at ZT5, 6-hour post-dose period
Procedure: Wake promotion was assessed using electroencephalography (EEG) and electromyography (EMG) in adult male Sprague-Dawley rats. All rats (Charles River Laboratories, Raleigh, NC, USA) were intraperitoneally implanted with telemetry devices (F50-EEE, Data Sciences International Inc., MN, USA) under isoflurane anesthesia. For EEG, stainless steel screws were implanted over frontal cortex and parietal cortex, and reference screws were placed over cerebellum. Additionally, an electrode was placed in neck muscle for EMG. Rats were given carprofen post-surgery and underwent a 7 to 10-day recovery period. Rats habituated to the experimental room for 7 days and were maintained on a 12-hour light-dark cycle.
EEG and EMG data were recorded using the DSI telemetry system and Ponemah software (Data Sciences International Inc., MN, USA). Sleep-wake stages were scored both manually and with Somnivore, a supervised machine learning software platform, in 10 second epochs. Records were visually inspected as needed post-processing.
All test compounds were dissolved in 5% DMSO and suspended in 95% saline with 0.5% methylcellulose and 0.5% tween. […] Unless otherwise indicated, all compounds were dosed orally. Recordings for each rat were initiated immediately after dosing and lasted for 6 hours post-dose.
Two key endpoints include wakefulness time and cortical activation time. Wakefulness time is derived from the sleep-wake stage analysis. Cortical activation time is based on the duration in which frontal gamma oscillatory activity (30-100 Hz), a key feature of wakefulness, was elevated relative to a pre-treatment baseline. Mean cortical activation time was computed relative to vehicle treatment for the 6-hour post-dose period.

MDCK-MDR1 cells = assay: MDCK-MDR1 permeability assay; type: in vitro ADME; conditions: MDCK-MDR1 cells; test compound 3 μM; 2 hours at 37 degrees C; apical to basolateral
In short: as §1

Row | Compound | efflux ratio at 2 h, 3 μM (MDR1) | Papp A→B at 2 h, 3 μM (MDR1) [×10⁻⁶ cm/s] | Mean cortical activation time (% vehicle treatment) (Sprague-Dawley rats; PO) | Papp A → B (10^−6 cm/s) (MDCK-MDR1 cells) | Mean cortical activation time (% vehicle treatment) (Sprague-Dawley rats; SC)
1 | CC(C)(O)C(=O)N1CC[C@H](NS(C)(=O)=O)[C@@H]1Cc1cccc(-c2cc(F)cc(F)c2)c1F [Reference Compound B, N-((2S,3S)-1-(2-hydroxy-2-methylpropanoy1)-2-((2,3′,5′-trifluorobipheny1-3-yl)methyl)pyrrolidin-3-yl)methanesulfonamide, reference compound] | > 100 | 0.21 | 110.4 |  | 
2 | Cc1cccc2c1[C@H]1CC[C@H](CC1)OC[C@H]1[C@@H](NS(C)(=O)=O)CCN1C(=O)CO2 [Compound 20] | 6.4 | 6.8 | 154.26 |  | 
3 | Cc1ncnc2c1[C@H]1CC[C@H](CC1)OCC1[C@@H](NS(C)(=O)=O)CCCN1C(=O)CO2 (stereo in doubt) [Compound 27] | 48 |  | 138.57 | 0.33 10^−6 cm/s | 
4 | O=C1COc2cccc(F)c2[C@H]2CC[C@H](CC2)OCC2[C@@H](NS(=O)(=O)C(F)(F)F)CCCN12 (stereo in doubt) [Compound 95] | 15 | 2 | 312.26 |  | 
5 | O=C1COc2nccnc2[C@H]2CC[C@H](CC2)OCC2[C@@H](NS(=O)(=O)C(F)(F)F)CCCN12 (stereo in doubt) [Compound 98] | 57 | 0.52 | 84.91 |  | 
6 | O=C1COc2ccccc2[C@H]2CC[C@H](CC2)OCC2[C@@H](NS(=O)(=O)C(F)(F)F)CCN12 (stereo in doubt) [Compound 100] | 1.3 | 12 | 265.17 |  | 
7 | CC(C)S(=O)(=O)N[C@H]1CCN2C(=O)COc3c(F)cc(F)cc3[C@H]3CC[C@H](CC3)OC[C@@H]12 [Compound 29] | 2.5 | 6.4 | 214.61 |  | 
8 | O=C1COc2ncccc2[C@H]2CC[C@H](CC2)OCC2[C@@H](NS(=O)(=O)C(F)(F)F)CCCN12 (stereo in doubt) [Compound 91] | 47 | 0.96 | 151.55 |  | 
9 | Cc1ccnc2c1[C@H]1CC[C@H](CC1)OCC1[C@@H](NS(=O)(=O)C(F)(F)F)CCN1C(=O)CO2 (stereo in doubt) [Compound 94] | 4.7 | 8.7 | 152.81 |  | 
10 | COC(=O)N1CCC[C@H](NS(C)(=O)=O)[C@@H]1CO[C@H]1CC[C@@H](c2ccccc2)CC1 [Reference Compound A, methyl (2R,3S)-3-((methylsulfonyl)amino)-2-(((cis-4-phenylcyclohexyl)oxy)methyl)-piperidine-l-carboxylate, reference compound] | 5.9 | 5 |  |  | 118.75
11 | Cc1ncnc2c1[C@H]1CC[C@H](CC1)OCC1[C@@H](NS(=O)(=O)C(F)(F)F)CCCN1C(=O)CO2 (stereo in doubt) [Compound 99] | 52 | 0.46 | 97.17 |  | 

Source: patent publication US12006330B2, “Substituted macrocyclic compounds and related methods of treatment” (Alkermes, Inc., priority 2020, dated 2024)
